According to publication PMC7230731 (Marine Drugs, 2020):

Assays:
CDK2 = biological target: T1, CDK2 (Homo sapiens, UniProt P24941); experiment: CDK2 kinase inhibition (Reaction Biology HotSpot); assay type: biochemical; details: single dose of 10 µM, read-out: % Enzyme Inhibitory Activity
T1 construct: purchased Reaction Biology Corp. (Kinase HotSpot service)
Method: The in vitro CDK2 kinase inhibition assay was carried out by Reaction Biology Corp. (Reaction Biology Corp., Chester, PA, USA) Kinase HotSpotSM service (http://www.reactionbiology.com).
5. CDK2 kinase inhibitory activity
Reaction Biology Corp. Kinase HotSpotSM service
(http://www.reactionbiology.com) was used for screening of tested compounds. CDK2 Kinase inhibitory activity was assessed by the HotSpot assay platform, which contained specific kinase/substrate pairs along with required cofactors. Base reaction buffer:
0.1 mM Na3VO4, 2 mM DTT, 1% DMSO. Testing compounds were dissolved in 100% DMSO to specific concentration. The serial dilution was conducted by Integra Viaflo Assist in DMSO. The reaction mixture containing the examined compound and 33P-ATP was incubated at room temperature for 2 h and radioactivity was detected by filter-binding method. Kinase activity data were expressed as the percent remaining kinase activity in test samples compared to vehicle (dimethyl sulfoxide) reactions.

MDA-MB-231 cells = experiment: SRB antiproliferative assay, MDA-MB-231; assay type: cell-based, human; details: for IC50: Homo sapiens, MDA-MB-231, 48 h, MDA-MB-231 triple-negative breast cancer cells, SRB assay, 48 h, mean ± S.D. of three experiments
Method: (§1) 1. Anti-proliferative action toward human breast cell lines […]
(§2) and non-tumorigenic human breast epithelial cell line (MCF-10A) have been obtained from American Type Culture Collection (ATCC). The cells were maintained in Dulbecco's modified Eagle's medium (DMEM) supplemented with 10% heat inactivated fetal calf serum (GIBCO), penicillin (100 U/ml) and streptomycin (100 µg/ml) at 37 °C in humidified atmosphere containing 5% CO2. […]
(§3) grown in a 25 cm2 flask in 5 ml of culture medium.
(§4) The anti-proliferative activity of the tested compounds was measured in vitro using the Sulfo-Rhodamine-B stain (SRB) assay. Briefly, Cells were inoculated in 96-well microtiter plate (5X104 cells/ well) for 24 h before treatment with the tested compounds to allow attachment of cell to the wall of the plate. Tested compounds were dissolved in DMSO at 1 mg/ml immediately before use and diluted to the appropriate volume just before addition to the cell culture. Different concentrations of tested compounds, doxorubicin and sorafenib were added to the cells (three wells were prepared for each […]
(§5) atmosphere of 5% CO2. After 48 h cells were fixed, washed, and stained for 30 min with 0.4% (w/v) SRB dissolved in 1% acetic acid. Unbound dye was removed by four washes with 1% acetic acid, and attached stain was recovered with Tris-EDTA buffer. Color intensity was measured in an ELISA reader. The relation between percent of surviving fraction and drug concentration is plotted to get the survival curve for each cell line. […]

MCF-10A cells = experiment: SRB cytotoxicity assay, non-tumorigenic MCF-10A; assay type: cell-based, human; details: for Selectivity Index MCF-10A/MCF-7: IC50 MCF-10A / IC50 MCF-7; for IC50: non-tumorigenic human breast epithelial MCF-10A cells, SRB assay
From the text: The two examined human breast cancer cell lines (MCF-7 and Breast MDA-MB-231), and non-tumorigenic human breast epithelial cell line (MCF-10A) have been obtained from the American Type Culture Collection (ATCC). Assessment of cytotoxicity for target indole derivatives has been performed following the SRB colorimetric assay procedures, as reported earlier.
1. Anti-proliferative action toward human breast cell lines
The two examined human breast cancer cell lines (MCF-7 and Breast MDA-MB-231), and non-tumorigenic human breast epithelial cell line (MCF-10A) have been obtained from American Type Culture Collection (ATCC). The cells were maintained in Dulbecco's modified Eagle's medium (DMEM) supplemented with 10% heat inactivated fetal calf serum (GIBCO), penicillin (100 U/ml) and streptomycin (100 µg/ml) at 37 °C in humidified atmosphere containing 5% CO2. Cells at a concentration of 0.50 x 106 were grown in a 25 cm2 flask in 5 ml of culture medium.
The anti-proliferative activity of the tested compounds was measured in vitro using the Sulfo-Rhodamine-B stain (SRB) assay. Briefly, Cells were inoculated in 96-well microtiter plate (5X104 cells/ well) for 24 h before treatment with the tested compounds to allow attachment of cell to the wall of the plate. Tested compounds were dissolved in DMSO at 1 mg/ml immediately before use and diluted to the appropriate volume just before addition to the cell culture. Different concentrations of tested compounds, doxorubicin and sorafenib were added to the cells (three wells were prepared for each individual dose). Cells were incubated with the compounds for 48 h at 37°C and in atmosphere of 5% CO2. After 48 h cells were fixed, washed, and stained for 30 min with 0.4% (w/v) SRB dissolved in 1% acetic acid. Unbound dye was removed by four washes with 1% acetic acid, and attached stain was recovered with Tris-EDTA buffer. Color intensity was measured in an ELISA reader. The relation between percent of surviving fraction and drug concentration is plotted to get the survival curve for each cell line. […]

MCF-7 cells = experiment: SRB antiproliferative assay, MCF-7; assay type: cell-based, human; details: for IC50: Homo sapiens, MCF7, 48 h, MCF-7 breast cancer cells, SRB assay, 48 h, mean ± S.D. of three experiments; for potency relative to Staurosporine, MCF-7: ratio of IC50 values, MCF-7 cells
Method: as §1, §2, §3, §4, §5

SMILES | inhibition at 10 µM (CDK2) | IC50 (MDA-MB-231 cells) | Selectivity Index MCF-10A/MCF-7 (MCF-10A cells) | IC50 (MCF-10A cells) | IC50 (MCF-7 cells) | potency relative to Staurosporine, MCF-7 (MCF-7 cells) | potency relative to Staurosporine, MDA-MB-231 (MDA-MB-231 cells; ratio of IC50 values, MDA-MB-231 cells)
C=CCN1C(=O)C(=NNC(=O)Cc2c[nH]c3ccccc23)c2ccccc21 [Compound 9a, N′-(1-Allyl-2-oxoindolin-3-ylidene)-2-(1H-indol-3-yl)acetohydrazide] | 23% | 18.2 ± 0.62 µM | 18.3 | 23.5 µM | 1.28 ± 0.04 µM | 5.3 times | –
O=C(Cc1c[nH]c2ccccc12)NN=C1C(=O)Nc2ccc([N+](=O)[O-])cc21 [Compound 7e, 2-(1H-Indol-3-yl)-N′-(5-nitro-2-oxoindolin-3-ylidene)acetohydrazide] | 16% | 1.32 ± 0.03 µM | 38.7 | 17.1 µM | 0.44 ± 0.01 µM | 15.5 times | 7.8 times
